Results reported in article PMC11801377, “A uniquely efficacious type of CFTR corrector with complementary mode of action” (Science Advances, 2024).

Assays:
[1] = biological target: T1, F508del-CFTR-G550E.R553M.R555K.R1070W (3TS + RW) (Homo sapiens, UniProt P13569, DEL508-508/G550E/R1070W/R553M/R555K); assay: CFTR immunoblotting in HEK-TREx cells expressing F508del-CFTR 3TS + RW; assay type: cell-based; settings: 48 hours
T1 construct: expressed in transfected cells; host or cells: T-REx HEK293
T1 sequence (P13569 with tags, fused parts or gaps DEL508-508/G550E/R553M/R555K/R1070W): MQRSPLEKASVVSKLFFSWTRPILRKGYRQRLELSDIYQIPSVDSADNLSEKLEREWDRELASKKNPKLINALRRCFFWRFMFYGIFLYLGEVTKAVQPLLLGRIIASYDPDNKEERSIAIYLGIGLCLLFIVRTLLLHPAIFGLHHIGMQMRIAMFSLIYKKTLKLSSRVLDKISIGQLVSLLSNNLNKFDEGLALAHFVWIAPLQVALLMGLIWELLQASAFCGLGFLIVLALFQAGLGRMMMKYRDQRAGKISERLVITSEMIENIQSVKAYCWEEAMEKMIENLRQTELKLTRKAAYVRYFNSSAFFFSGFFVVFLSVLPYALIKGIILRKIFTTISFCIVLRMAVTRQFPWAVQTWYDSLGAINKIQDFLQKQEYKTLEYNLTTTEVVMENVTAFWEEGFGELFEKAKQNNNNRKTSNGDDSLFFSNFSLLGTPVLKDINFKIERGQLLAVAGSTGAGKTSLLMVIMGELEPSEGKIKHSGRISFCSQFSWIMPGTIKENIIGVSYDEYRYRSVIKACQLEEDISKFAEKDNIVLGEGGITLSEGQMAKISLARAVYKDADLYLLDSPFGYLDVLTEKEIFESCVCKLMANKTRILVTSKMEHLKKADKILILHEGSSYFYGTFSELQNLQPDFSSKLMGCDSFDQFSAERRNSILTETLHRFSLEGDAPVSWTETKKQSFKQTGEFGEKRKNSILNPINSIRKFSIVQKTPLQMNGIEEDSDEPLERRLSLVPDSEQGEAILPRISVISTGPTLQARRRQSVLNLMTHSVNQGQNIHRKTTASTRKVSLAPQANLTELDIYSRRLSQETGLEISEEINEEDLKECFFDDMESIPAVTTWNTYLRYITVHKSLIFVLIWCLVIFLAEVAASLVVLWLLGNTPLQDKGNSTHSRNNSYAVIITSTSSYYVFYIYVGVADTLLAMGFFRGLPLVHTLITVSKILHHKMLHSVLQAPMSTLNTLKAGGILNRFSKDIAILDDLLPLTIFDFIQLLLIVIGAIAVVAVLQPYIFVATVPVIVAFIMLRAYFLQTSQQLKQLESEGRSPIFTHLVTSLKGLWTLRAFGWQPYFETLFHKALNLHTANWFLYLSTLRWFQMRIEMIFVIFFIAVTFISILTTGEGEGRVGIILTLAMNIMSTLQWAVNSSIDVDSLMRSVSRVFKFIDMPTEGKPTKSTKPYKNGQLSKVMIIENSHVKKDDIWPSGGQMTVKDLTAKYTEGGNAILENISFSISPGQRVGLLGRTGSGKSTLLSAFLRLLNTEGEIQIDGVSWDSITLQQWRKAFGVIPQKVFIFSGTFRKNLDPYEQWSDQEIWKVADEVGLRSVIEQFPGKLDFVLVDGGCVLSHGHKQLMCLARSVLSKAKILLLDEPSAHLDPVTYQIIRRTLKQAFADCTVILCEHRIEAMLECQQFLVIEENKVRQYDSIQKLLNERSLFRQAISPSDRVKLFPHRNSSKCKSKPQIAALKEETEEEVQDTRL
Excerpt: (§1) The human CFTR expressing HEK cell pools with the mutations described below were generated by integrase-mediated homologous recombination of the CFTR sequence into the T-REx HEK293 background (Thermo Fisher Scientific). This expression system allows the tetracycline-inducible expression of genes of interest from one defined insertion site. Parental T-REx-HEK293 cells were cultivated in growth medium: Dulbecco’s modified Eagle’s medium + GlutaMAX-I (#31966, Life Technologies), 10% dialyzed FBS (Gibco, #26400), penicillin (100 U/ml), streptomycin (100 μg/ml), hygromycin B (0.1 mg/ml; Life Technologies), blasticidin (5 μg/ml; Invitrogen, #R210-01), and 0.1 mM nonessential amino acid solution (Invitrogen, #11140-035). Recombinant T-REx-HEK-CFTR cells were generated by lipofectamine transfection (Life Technologies) of plasmids containing mutated versions of CFTR (RefSeq NM_000492) and then cultivated in selection medium [growth medium containing Geneticin (1 mg/ml) (Invitrogen, #10131-027) instead of hygromycin]. The plasmid constructs were synthetized by GENEART (Thermo Fisher Scientific) and designed with the WT CFTR intron 5 to 6 (880 nucleotides) to prevent leaky expression issues during the cloning process in bacteria. […]

R560T CFTR = biological target: T2, R560T CFTR (Homo sapiens, UniProt P13569, R560T); assay: CFTR correction (immunoblotting), HEK-TREx, R560T; assay type: cell-based; settings: 48 hours, IDOR-3 2 μM, IDOR-4 0.4 μM, TEZ 2 μM + ELX 0.4 μM
T2 construct: expressed in transfected cells; host or cells: T-REx HEK293
T2 sequence (P13569 whole entry R560T): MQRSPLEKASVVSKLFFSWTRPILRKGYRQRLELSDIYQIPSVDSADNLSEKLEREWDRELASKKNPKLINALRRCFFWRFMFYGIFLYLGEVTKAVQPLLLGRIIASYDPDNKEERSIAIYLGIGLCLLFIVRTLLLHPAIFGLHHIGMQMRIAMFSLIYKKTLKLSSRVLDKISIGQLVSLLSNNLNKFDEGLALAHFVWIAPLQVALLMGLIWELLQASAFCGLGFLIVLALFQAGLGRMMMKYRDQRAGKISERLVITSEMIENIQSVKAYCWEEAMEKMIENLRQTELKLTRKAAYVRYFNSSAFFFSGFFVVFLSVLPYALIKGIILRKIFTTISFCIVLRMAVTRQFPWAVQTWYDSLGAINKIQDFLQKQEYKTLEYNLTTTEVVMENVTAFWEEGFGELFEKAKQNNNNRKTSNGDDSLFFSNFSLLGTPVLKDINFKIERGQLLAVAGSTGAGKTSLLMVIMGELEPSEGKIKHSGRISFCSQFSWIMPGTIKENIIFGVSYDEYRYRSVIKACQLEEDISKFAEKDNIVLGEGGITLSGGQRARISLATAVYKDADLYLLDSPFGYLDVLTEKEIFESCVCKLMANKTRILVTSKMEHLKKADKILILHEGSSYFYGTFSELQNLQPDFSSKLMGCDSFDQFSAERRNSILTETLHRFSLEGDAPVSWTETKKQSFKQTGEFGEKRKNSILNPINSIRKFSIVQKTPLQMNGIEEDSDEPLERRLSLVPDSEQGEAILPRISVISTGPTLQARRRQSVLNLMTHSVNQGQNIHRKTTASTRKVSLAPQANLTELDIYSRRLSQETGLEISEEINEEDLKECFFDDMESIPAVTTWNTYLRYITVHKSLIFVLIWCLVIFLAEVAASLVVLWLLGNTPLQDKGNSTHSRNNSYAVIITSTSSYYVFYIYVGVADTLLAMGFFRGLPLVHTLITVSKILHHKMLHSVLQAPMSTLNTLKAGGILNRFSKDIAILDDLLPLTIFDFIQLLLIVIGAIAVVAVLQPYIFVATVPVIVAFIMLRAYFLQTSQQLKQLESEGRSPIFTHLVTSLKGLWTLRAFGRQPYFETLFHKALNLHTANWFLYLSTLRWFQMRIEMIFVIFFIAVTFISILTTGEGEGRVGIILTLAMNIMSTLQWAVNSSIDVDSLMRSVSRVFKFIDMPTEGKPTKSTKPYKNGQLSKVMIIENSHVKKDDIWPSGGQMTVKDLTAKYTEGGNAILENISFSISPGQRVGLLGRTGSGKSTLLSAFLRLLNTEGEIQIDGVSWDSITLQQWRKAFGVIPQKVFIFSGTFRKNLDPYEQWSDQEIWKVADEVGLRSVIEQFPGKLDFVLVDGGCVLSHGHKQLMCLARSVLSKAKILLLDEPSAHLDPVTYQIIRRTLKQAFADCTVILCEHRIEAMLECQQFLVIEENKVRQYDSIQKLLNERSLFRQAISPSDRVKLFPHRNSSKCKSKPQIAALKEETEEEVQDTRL
Excerpt: as §1

F508del.K14A-CFTR = assay: Site-directed mutagenesis immunoblotting, HEK-TREx, F508del.K14A-CFTR; assay type: cell-based, human; settings: 40 h, 2 μM
Excerpt: as §1

R1066C CFTR = biological target: T3, R1066C CFTR (Homo sapiens, UniProt P13569, R1066C); assay: CFTR correction (immunoblotting), HEK-TREx, R1066C; assay type: cell-based; settings: 48 hours, IDOR-3 2 μM, IDOR-4 0.4 μM, TEZ 2 μM + ELX 0.4 μM
T3 construct: expressed in transfected cells; host or cells: T-REx HEK293
T3 sequence (P13569 whole entry R1066C): as the sequence (P13569 whole entry R560T) above, with T560R, R1066C counted along it
Excerpt: as §1

V520F CFTR = biological target: T4, V520F CFTR (Homo sapiens, UniProt P13569, V520F); assay: CFTR correction (immunoblotting), HEK-TREx, V520F; assay type: cell-based; settings: 48 hours, IDOR-3 2 μM, IDOR-4 0.4 μM, TEZ 2 μM + ELX 0.4 μM
T4 construct: expressed in transfected cells; host or cells: T-REx HEK293
T4 sequence (P13569 whole entry V520F): as the sequence (P13569 whole entry R560T) above, with V520F, T560R counted along it
Excerpt: as §1

F508del-CFTR = F508del-CFTR (Homo sapiens, UniProt P13569, DEL508-508); assay: CFTR immunoblotting in HEK-TREx cells expressing F508del-CFTR; assay type: cell-based; design: expressed in transfected cells; host or cells: T-REx HEK293; settings: 48 hours, IDOR-3 2 μM, IDOR-4 0.4 μM
Chain of F508del-CFTR (P13569 with tags, fused parts or gaps DEL508-508): as the sequence (P13569 with tags, fused parts or gaps DEL508-508/G550E/R553M/R555K/R1070W) above, with E549G, M552R, K554R, W1069R counted along it
Excerpt: as §1

I507del CFTR = biological target: T5, I507del CFTR (Homo sapiens, UniProt P13569, DEL507-507); assay: CFTR correction (immunoblotting), HEK-TREx, I507del; assay type: cell-based; settings: 48 hours, IDOR-3 2 μM, IDOR-4 0.4 μM, TEZ 2 μM + ELX 0.4 μM
T5 construct: expressed in transfected cells; host or cells: T-REx HEK293
T5 sequence (P13569 with tags, fused parts or gaps DEL507-507): as the sequence (P13569 with tags, fused parts or gaps DEL508-508/G550E/R553M/R555K/R1070W) above, with I507F, E549G, M552R, K554R, W1069R counted along it
Excerpt: as §1

effect of introduction of the RW mutation on C-band expression [1]: no additional effect
correction of R560T (R560T CFTR): highly effective
correction of R1066C (R1066C CFTR): highly effective
correction of V520F (V520F CFTR): highly effective
increase in C-band expression (F508del-CFTR): 9 fold
correction of I507del (I507del CFTR): highly effective
SMILES: COc1cc(CCNC(=O)C2CC(=O)N(C)C(CC(C)C)C(=O)N3CCCCC3C(=O)NC(Cc3ccccc3)COc3ccc4ncc(F)cc4c3C(=O)N2)on1 (stereo not shown) [IDOR-3]
weaker correction by macrocycles as compared to [LUM + BAM] (F508del.K14A-CFTR): two- to fourfold
